Experimental findings from ChEMBL document CHEMBL1201862, “PubChem BioAssay data set” (2004) are described below.

Experiment in all cases: inhibition of tumour cell growth, NCI panel, 48 h
Assay [1] relates to SF-268.
Assay [2] relates to RXF 393.
Assay [3] deals with Hs-578T.
For assay [4], the system named is UACC-62.
Assay [5] concerns HOP-62.
For assay [6], the system named is OVCAR-4.
In assay [7] the test system is NCI-H460.
In assay [8] the test system is SNB-75.
In assay [9] the test system is HCT-15.
Assay [10] has as its system 786-0.
Assay [11] has as its system EKVX.
For assay [12], the system named is UO-31.
The test system of assay [13] is M14.
Assay [14] concerns NCI-H226.
In assay [15] the test system is NCI-H522.
Assay [16] concerns HOP-92.
In assay [17] the test system is HCT-116.
Assay [18] has as its system MDA-MB-231.
The subject of assay [19] is K562.

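Five concentrations, 48 hours, 96-well plates. Abbreviation: GI50, concentration required for 50% inhibition of growth.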 The source made the active and inactive calls. No stated cut-off is given here; in the data, active = GI50 up to about 1.1 µM and inactive = higher. Where only a bound is given, the exact number is not on record here.

For the compound `CCCCC(CCCC)=NNC(=S)SC`, the GI50 is 34.3 µM (inactive) in assay [1]; 65.3 µM (inactive) in [2]; 44.2 µM (inactive) in assay [3]; 22 µM (inactive) in assay [4]; 40.6 µM (inactive) in assay [5]; 18.9 µM (inactive) in assay [6]. Moreover, the GI50 is 30.3 µM (inactive) in assay [7]; 27.5 µM (inactive) in assay [8]; 34.2 µM in assay [9]; 34.8 µM (inactive) in assay [10]; 87.3 µM (inactive) in assay [11]; 24.7 µM (inactive) in [12]. The GI50 in [13] was 17.3 µM (inactive); in assay [14], 16.1 µM (inactive); in assay [15], 17.1 µM (inactive); in [16] it was 38.6 µM (inactive); in assay [17], 17.4 µM (inactive); in assay [18], 28.3 µM (inactive). Besides, the GI50 in assay [19] is 29.6 µM (inactive).
`COC(=O)[C@@H]1CCCCC[C@H]2C(CO)=C(C)C(=O)C12` (some centres not stated): the GI50 in assay [1], in assay [2], in [4], in assay [5], in assay [6] and in assay [7] was > 100 µM (inactive) throughout. The GI50 in assay [8] was > 100 µM (inactive); in [9], greater than 100 µM; in assay [10], > 100 µM (inactive); in assay [11] it was > 100 µM (inactive); in assay [12], > 100 µM (inactive); in assay [13], > 100 µM (inactive). The GI50 is 99.1 µM (inactive) in assay [14]; > 100 µM (inactive) in assay [15]; > 100 µM (inactive) in assay [16]; > 100 µM (inactive) in assay [17]; > 100 µM (inactive) in [19].
With `CSc1nc(SC)c2c(C#N)n[nH]c2n1`, the GI50 in [1], in assay [2], in assay [4], in assay [5], in assay [6] and in assay [7] was > 100 µM (inactive) throughout. In addition, the GI50 was 63.5 µM (inactive) in assay [8]; greater than 100 µM in assay [9]; > 100 µM (inactive) in assay [10]; > 100 µM (inactive) in assay [11]; > 100 µM (inactive) in [12]; > 100 µM (inactive) in assay [13]. Besides, the GI50 in assay [14] is > 100 µM (inactive); in [15] it was > 100 µM (inactive); in [16] it was 48.5 µM (inactive); in [19], > 100 µM (inactive).
On to `Cc1c(-c2cc(-c3ccccc3)n[nH]c2=O)c2ccccc2n1C`, for which the GI50 was > 100 µM (inactive) in [1]; > 61.7 µM (inactive) in assay [2]; > 100 µM (inactive) in assay [4]; > 100 µM (inactive) in assay [5]; > 100 µM (inactive) in assay [6]; > 100 µM (inactive) in assay [7]. The GI50 in [8] is > 100 µM (inactive); in [9] it was greater than 100 µM; in assay [10] it was > 100 µM (inactive); in assay [11] it was > 100 µM (inactive); in assay [12], > 100 µM (inactive); in [13], > 100 µM (inactive). Also, the GI50 in assay [14], in assay [15], in assay [16], in [17] and in assay [19] was > 100 µM (inactive) throughout.
For `Cc1cc(C)nc(NS(=O)(=O)c2ccc(NC(=O)c3ccc(Cl)c4c(Nc5ccc(S(=O)(=O)Nc6cc(C)on6)cc5)c5ccccc5nc34)cc2)n1`, the GI50 was 15 µM (inactive) in [1]; 14.3 µM (inactive) in assay [2]; 17.1 µM (inactive) in assay [4]; 16.3 µM (inactive) in [5]; 16.7 µM (inactive) in assay [6]; 18 µM (inactive) in [7]. Further, the GI50 is > 10 µM (inactive) in assay [8]; 17 µM (inactive) in [10]; 19 µM (inactive) in [11]; 17.6 µM (inactive) in assay [12]; 18.8 µM (inactive) in assay [13]; 17.5 µM (inactive) in assay [14]. Also, the GI50 in assay [15] is 16.1 µM (inactive); in [16], 16.3 µM (inactive); in [17] it was 20.4 µM (inactive); in [19], 20.9 µM (inactive).
Turning to `C[N+](C)(C)CC1CCC/C1=N/O` (configuration not stated), the GI50 is > 100 µM (inactive) in [1]; 37.1 µM (inactive) in assay [2]; > 100 µM (inactive) in assay [4]; > 100 µM (inactive) in [5]; > 100 µM (inactive) in assay [6]; 50.4 µM (inactive) in [7]. In addition, the GI50 in [8] was > 100 µM (inactive); in assay [9], 20 µM; in [10], 22.2 µM (inactive); in [11], > 100 µM (inactive); in assay [12], > 100 µM (inactive); in assay [13] it was > 100 µM (inactive). In addition, the GI50 in assay [14] is > 100 µM (inactive); in assay [15] it was > 100 µM (inactive); in assay [16] it was > 100 µM (inactive); in assay [17] it was 21.5 µM (inactive); in assay [19], 23.7 µM (inactive).
With `c1ccc2c(c1)nc1n2sc2nc3ccccc3n21`, the GI50 in assay [1] was > 100 µM (inactive); in assay [3] it was > 100 µM (inactive); in assay [4], 51.6 µM (inactive); in assay [6], > 100 µM (inactive); in assay [7] it was > 100 µM (inactive); in [9], greater than 100 µM. Further, the GI50 in assay [10] was > 100 µM (inactive); in [11] it was 54 µM (inactive); in assay [12], > 100 µM (inactive); in [13] it was > 100 µM (inactive); in assay [14] it was > 100 µM (inactive); in [15], 34.9 µM (inactive). Moreover, the GI50 in assay [16], in assay [17], in assay [18] and in assay [19] was > 100 µM (inactive) in each case.
As to `C=C1C(=O)O[C@H]2C1C[C@@H](O)[C@@]1(C)OC1CC[C@@]1(C)O[C@H]21` (some centres not stated), the GI50 in assay [1] was 48.1 µM (inactive); in [2], 17.9 µM (inactive); in [3], 28.6 µM (inactive); in assay [4], 15.3 µM (inactive); in assay [6], 13.9 µM (inactive); in [7], 57.9 µM (inactive). Besides, the GI50 was 74.1 µM (inactive) in [8]; 14.9 µM in [9]; 22.1 µM (inactive) in assay [10]; 15.8 µM (inactive) in assay [11]; 17 µM (inactive) in assay [12]; 16.3 µM (inactive) in assay [13]. The GI50 was 5.62 µM (inactive) in [15]; 17.2 µM (inactive) in [16]; 17.7 µM (inactive) in [17]; 19.1 µM (inactive) in assay [18]; 9.33 µM (inactive) in assay [19].
With `NCCc1ccc2oc3cc(=O)c4ccccc4c-3nc2c1`, the GI50 was 3.85 µM (inactive) in [1]; 2.84 µM (inactive) in assay [2]; 4.37 µM (inactive) in [4]; 3.09 µM (inactive) in assay [5]; 4.68 µM (inactive) in assay [6]; 0.9 µM (active) in assay [7]. The GI50 was 2.22 µM (inactive) in assay [8]; 0.966 µM in [9]; 2.12 µM (inactive) in assay [10]; 11.6 µM (inactive) in [11]; 2.14 µM (inactive) in assay [12]; 1.71 µM (inactive) in [13]. Besides, the GI50 is 5.19 µM (inactive) in assay [14]; 2.59 µM (inactive) in assay [15]; 7.71 µM (inactive) in assay [16]; 1.41 µM (inactive) in assay [17]; 2.02 µM (inactive) in [19].
